Data: US9708314B2, “Heterocyclic amide compound” (NISSAN CHEMICAL INDUSTRIES, LTD., priority 2013, dated 2017)

Experiments:
Assay type in all cases: in vivo
Cyperus difformis = test: Test Example 3: herbicidal effect by application to foliage (Wagner pot, water depth 0.1-0.5 cm); settings: Nineteenth Table; application to foliage; application herbicide amount 320 g/ha
In short: (§1)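 Wagner pot foliar test: sow, grow 14 d (25–30 °C), spray diluted emulsion at set g/ha, score after 3 wk; 0 ≤5%, 5 ≥90% herbicidal ratio.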

[1] = test system: Echinochloa crus-galli var. crus-galli; test: as above; settings: Nineteenth Table; application to foliage; application herbicide amount 320 g/ha
In short: as §1

Leptochloa chinensis = test: as above; settings: Nineteenth Table; application to foliage; application herbicide amount 320 g/ha
In short: as §1

[2] = test system: directly sowed Oryza sativa; test: Test Example 3: effect on crop by application to foliage (Wagner pot, water depth 0.1-0.5 cm); settings: Nineteenth Table; application to foliage; application herbicide amount 320 g/ha
In short: as §1

Abutilon theophrasti = test: Test Example 4: herbicidal effect by application to foliage (diluvial soil, plastic box); settings: Application herbicide amount 320 g/ha
In short: (§2)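 Plants were grown in sterilized diluvial soil in a greenhouse at 25-30° C for 14 days, then sprayed on stems and leaves with water-diluted emulsion formulation at set rates in g/ha. Weed control and crop injury were scored 3 weeks after treatment on a 0-5 herbicidal-ratio scale, from 0 (≤5%) to 5 (≥90%).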

Alopecurus myosuroides = test: as above; settings: Application herbicide amount 320 g/ha
In short: as §2

Apera spica-venti. = test: as above; settings: Application herbicide amount 320 g/ha
In short: as §2

Avena fatua = test: as above; settings: Application herbicide amount 320 g/ha
In short: as §2

Chenopodium album = test: as above; settings: Application herbicide amount 320 g/ha
In short: as §2

Digitaria ciliaris = test: as above; settings: Application herbicide amount 320 g/ha
In short: as §2

[3] = test system: Echinochloa crus-galli var. crus-galli; test: as above; settings: Application herbicide amount 320 g/ha
In short: as §2

Galium spurium = test: as above; settings: Application herbicide amount 320 g/ha
In short: as §2

Lolium multiflorum Lam. = test: as above; settings: Application herbicide amount 320 g/ha
In short: as §2

Setaria viridis = test: as above; settings: Application herbicide amount 320 g/ha
In short: as §2

Veronica persica = test: as above; settings: Application herbicide amount 320 g/ha
In short: as §2

SMILES | E (herbicidal effect grade) (Cyperus difformis) | H (herbicidal effect grade) [1] | D (herbicidal effect grade) (Leptochloa chinensis) | b (effect on crop grade) [2] | M (Abutilon theophrasti) | J (Alopecurus myosuroides) | L (Apera spica-venti.) | I (Avena fatua) | O (Chenopodium album) | F (Digitaria ciliaris) | H [3] | Q (Galium spurium) | K (Lolium multiflorum Lam.) | G (Setaria viridis) | R (Veronica persica)
CCC[S+]([O-])c1nnc2c(C(=O)Nc3nnc(C)o3)ccc(C(F)(F)F)n12 (stereo not drawn) [1-092] | 5 (Herbicidal ratio of 90% or more (almost completely withered)) | 5 (Herbicidal ratio of 90% or more (almost completely withered)) | 5 (Herbicidal ratio of 90% or more (almost completely withered)) | 4 (Herbicidal ratio of 70% or more and less than 90%) | 4 (Herbicidal ratio of 70% or more and less than 90%) | 1 (Herbicidal ratio of 5% or more and less than 20%) | 1 (Herbicidal ratio of 5% or more and less than 20%) | 2 (Herbicidal ratio of 20% or more and less than 40%) | 5 (Herbicidal ratio of 90% or more (almost completely withered)) | 5 (Herbicidal ratio of 90% or more (almost completely withered)) | 5 (Herbicidal ratio of 90% or more (almost completely withered)) | 3 (Herbicidal ratio of 40% or more and less than 70%) | 1 (Herbicidal ratio of 5% or more and less than 20%) | 5 (Herbicidal ratio of 90% or more (almost completely withered)) | 5 (Herbicidal ratio of 90% or more (almost completely withered))
Cc1nnc(NC(=O)c2ccc(C(F)(F)F)n3c(SCC(C)C)nnc23)o1 [1-093] | 4 (Herbicidal ratio of 70% or more and less than 90%) | 4 (Herbicidal ratio of 70% or more and less than 90%) | 5 (Herbicidal ratio of 90% or more (almost completely withered)) | 1 (Herbicidal ratio of 5% or more and less than 20%) | 4 (Herbicidal ratio of 70% or more and less than 90%) | 0 (Herbicidal ratio of 5% or less (almost no effect)) | 1 (Herbicidal ratio of 5% or more and less than 20%) | 1 (Herbicidal ratio of 5% or more and less than 20%) | 5 (Herbicidal ratio of 90% or more (almost completely withered)) | 5 (Herbicidal ratio of 90% or more (almost completely withered)) | 5 (Herbicidal ratio of 90% or more (almost completely withered)) | 1 (Herbicidal ratio of 5% or more and less than 20%) | 1 (Herbicidal ratio of 5% or more and less than 20%) | 3 (Herbicidal ratio of 40% or more and less than 70%) | 4 (Herbicidal ratio of 70% or more and less than 90%)
CCC(C)Sc1nnc2c(C(=O)Nc3nnc(C)o3)ccc(C(F)(F)F)n12 (stereo not drawn) [1-094] | 4 (Herbicidal ratio of 70% or more and less than 90%) | 5 (Herbicidal ratio of 90% or more (almost completely withered)) | 4 (Herbicidal ratio of 70% or more and less than 90%) | 1 (Herbicidal ratio of 5% or more and less than 20%) | 4 (Herbicidal ratio of 70% or more and less than 90%) | 1 (Herbicidal ratio of 5% or more and less than 20%) | 1 (Herbicidal ratio of 5% or more and less than 20%) | 2 (Herbicidal ratio of 20% or more and less than 40%) | 5 (Herbicidal ratio of 90% or more (almost completely withered)) | 5 (Herbicidal ratio of 90% or more (almost completely withered)) | 5 (Herbicidal ratio of 90% or more (almost completely withered)) | 0 (Herbicidal ratio of 5% or less (almost no effect)) | 1 (Herbicidal ratio of 5% or more and less than 20%) | 4 (Herbicidal ratio of 70% or more and less than 90%) | 4 (Herbicidal ratio of 70% or more and less than 90%)
